The values below come from patent US10844038B2, “1,2-dithiolane compounds useful in neuroprotection, autoimmune and cancer diseases and conditions” (SABILA BIOSCIENCES LLC, priority 2016, dated 2020).

Like-named read-outs stand apart in the source and are kept apart here.

The target in one test is MEK1 (Homo sapiens (Human), UniProt Q02750). Kind of test: KINOMEscan competition binding assay (Kd). To be noted: read-out: Kd Values Against MEK Kinases Isoforms: MEK1. The protocol: (§1) KINOMEscan™ is based on a competition binding assay that quantitatively measures the ability of a test compound of the invention to compete with an immobilized, active-site directed ligand. The Kinase assay is performed by combining three components: DNA-tagged kinase; immobilized ligand; and a test compound. The ability of the test compound to compete with the immobilized ligand is measured via quantitative PCR of the DNA tag.
(§2) For most assays, kinase-tagged T7 phage strains were prepared in an E. coli host derived from the BL21 strain. E. coli were grown to log-phase and infected with T7 phage and incubated with shaking at 32° C. until lysis. The lysates were centrifuged and filtered to remove cell debris. The remaining kinases were produced in HEK-293 cells and subsequently tagged with DNA for qPCR detection. Streptavidin-coated magnetic beads were treated with biotinylated small molecule ligands for 30 minutes at room temperature to generate affinity resins for kinase assays. The liganded beads were blocked with excess biotin and washed with blocking buffer (SeaBlock (Pierce), 1% BSA, 0.05% Tween 20, 1 mM DTT) to remove unbound ligand and to reduce nonspecific binding. […] All reactions were performed in polystyrene 96-well plates in a final volume of 0.135 ml. […] The kinase concentration in the eluates was measured by qPCR.

A further test concerns the target MEK5 (Homo sapiens (Human), UniProt Q13163). Briefly: KINOMEscan competition binding assay (Kd). As for the experimental part:
as §1, §2

In another test the target is mTOR (Homo sapiens (Human), UniProt P42345). Kind of test: KINOMEscan competition binding assay (Kd). To be noted: read-out: Kd Values Against mTOR Kinase: mTOR. As for the experimental part:
as §1, §2

The target of a further test is ARAF (Homo sapiens (Human), UniProt P10398). Kind of test: Radioisotope filter binding assay. To be noted: read-out: IC50 Activity Levels Against MAPK Pathway Kinases: ARAF. The test is classed as biochemical. The protocol: (§3) 3. Radioisotope Filter Binding Assay:
(§4) In this assay format, it directly detects the true product without the use of modified substrates or coupling enzymes (Uitdehaag, J. C., et al. Br. J. Pharmacol. 2012, 166, 858-876; Hastie, C. J., et al. Nat. Protoc. 2006, 1, 968-971) according to equation 1. Substrate+[γ−^33P]−ATP→^33P-Substrate+ADP eq 1
(§5) The protocol calls for test compound of the invention to be incubated with kinase, substrate, cofactors, and radio-isotope-labeled ATP (^33P-gamma-ATP). The reaction mixtures are then spotted onto filter papers which bind the radioisotope labeled catalytic product. Unreacted phosphate is removed via washing. The reagents used include base reaction buffer; 20 mM Hepes (pH 7.5), 10 mM MgCl2, 1 mM EGTA, 0.02% Brij35, 0.02 mg/ml BSA, 0.1 mM Na3VO4, 2 mM DTT, 1% DMSO. The reaction procedure include the following steps: (1) prepare indicated substrate in freshly prepared base reaction buffer, (2) deliver any required cofactors to the substrate solution above, (3) deliver indicated kinase into the substrate solution and gently mix, (4) deliver compounds in DMSO into the kinase reaction mixture by Acoustic technology (Echo550; nanoliter range), incubate for 20 minutes at room temperature, (5) deliver ^33P-ATP (specific activity 10 μCi/μL) into the reaction mixture to initiate the reaction, (6) incubate kinase reaction for 2 hours at room temperature, (7) reactions are spotted onto P81 ion exchange paper, (8) detect kinase activity by filter-binding method.

The target of another test is BLK (Homo sapiens (Human), UniProt P51451). Kind of test: Radioisotope filter binding assay. To be noted: read-out: IC50 Activity Levels Against SRC Family Kinases: BLK. It counts as biochemical. As for the experimental part:
as §3, §4, §5

The target of the next test is BRK (Homo sapiens (Human), UniProt Q13882). Kind of test: Radioisotope filter binding assay. It counts as biochemical. To be noted: read-out: IC50 Activity Levels Against FRK Family Kinases: BRK. As for the experimental part: as §3, §4, §5
The next test concerns the target BTK (Homo sapiens (Human), UniProt Q06187). Kind of test: Radioisotope filter binding assay. The test is classed as biochemical. To be noted: read-out: IC50 Activity Levels Against Representative TEC Family Kinases: BTK. The protocol:
as §3, §4, §5

For another test, the target named is CRAP (Homo sapiens (Human), UniProt P04049). Kind of test: Radioisotope filter binding assay. The test is classed as biochemical. To be noted: read-out: IC50 Activity Levels Against MAPK Pathway Kinases: CRAP. The protocol:
as §3, §4, §5

Another test deals with FGR (Homo sapiens (Human), UniProt P09769). Briefly: Radioisotope filter binding assay. The test is classed as biochemical. To be noted: read-out: IC50 Activity Levels Against SRC Family Kinases: FGR. The protocol: as §3, §4, §5
For a further test, the target named is FLT3 (Homo sapiens (Human), UniProt P36888). Kind of test: Radioisotope filter binding assay. To be noted: read-out: IC50 Activity Levels Against Type III NRT Kinases: FLT3. It counts as biochemical. As for the experimental part: as §3, §4, §5
Another test deals with FLT3-ITD. Briefly: Radioisotope filter binding assay. It counts as biochemical. To be noted: read-out: IC50 Activity Levels Against Type III NRT Kinases: FLT3-ITD. As for the experimental part: as §3, §4, §5
A further test addresses FYN (Homo sapiens (Human), UniProt P06241). Briefly: Radioisotope filter binding assay. The test is classed as biochemical. To be noted: read-out: IC50 Activity Levels Against SRC Family Kinases: FYN. As for the experimental part:
as §3, §4, §5

The next test deals with FYN-Y531F (Homo sapiens (Human), UniProt P06241, Y531F). Kind of test: Radioisotope filter binding assay. It counts as biochemical. To be noted: read-out: IC50 Activity Levels Against FYN Mutant: FYN-Y531F. The protocol: as §3, §4, §5
The next test addresses HCK (Homo sapiens (Human), UniProt P08631). Briefly: Radioisotope filter binding assay. It counts as biochemical. To be noted: read-out: IC50 Activity Levels Against SRC Family Kinases: HCK. As for the experimental part: as §3, §4, §5
A further test concerns the target LCK (Homo sapiens (Human), UniProt P06239). Kind of test: Radioisotope filter binding assay. It counts as biochemical. To be noted: read-out: IC50 Activity Levels Against SRC Family Kinases: LCK. The protocol: as §3, §4, §5
A further test deals with LYN (Homo sapiens (Human), UniProt P07948). Briefly: Radioisotope filter binding assay. It counts as biochemical. To be noted: read-out: IC50 Activity Levels Against SRC Family Kinases: LYN. The protocol: as §3, §4, §5
The next test concerns the target SRC (Homo sapiens (Human), UniProt P12931). Kind of test: Radioisotope filter binding assay. The test is classed as biochemical. To be noted: read-out: IC50 Activity Levels Against SRC Family Kinases: SRC. The protocol:
as §3, §4, §5

In test [1] the target is T1, YES1 (Homo sapiens (Human), UniProt P07947). Briefly: Radioisotope filter binding assay. It counts as biochemical. To be noted: read-out: IC50 Activity Levels Against SRC Family Kinases: YES1. The protocol:
as §3, §4, §5

Test [2] concerns the target T1, YES1. Briefly: Kinase binding assay CaPBA. To be noted: read-out: IC50 Activity Levels Against FYN isoforms, YES1 and MEK5: YES1. The source says:
4. Kinase Binding Assay CaPBA:

[3] abbreviates: Table 12, read-out: Kd Values Against MEK Kinases Isoforms: MEK5.

LCK, sequence (P06239 whole entry): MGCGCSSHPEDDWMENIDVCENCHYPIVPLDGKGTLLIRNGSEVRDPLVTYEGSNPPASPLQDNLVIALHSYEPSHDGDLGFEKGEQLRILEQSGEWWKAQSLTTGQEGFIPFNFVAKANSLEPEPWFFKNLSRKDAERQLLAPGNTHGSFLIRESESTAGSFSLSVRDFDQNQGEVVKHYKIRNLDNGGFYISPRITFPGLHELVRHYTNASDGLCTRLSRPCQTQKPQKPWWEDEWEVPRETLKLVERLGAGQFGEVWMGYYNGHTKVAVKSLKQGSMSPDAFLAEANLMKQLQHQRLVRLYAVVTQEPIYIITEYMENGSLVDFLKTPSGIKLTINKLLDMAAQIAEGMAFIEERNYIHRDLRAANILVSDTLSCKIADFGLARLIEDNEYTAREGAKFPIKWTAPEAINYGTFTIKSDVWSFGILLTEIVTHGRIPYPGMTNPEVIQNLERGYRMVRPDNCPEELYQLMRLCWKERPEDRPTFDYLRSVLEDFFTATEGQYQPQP
CRAP, sequence (P04049 whole entry): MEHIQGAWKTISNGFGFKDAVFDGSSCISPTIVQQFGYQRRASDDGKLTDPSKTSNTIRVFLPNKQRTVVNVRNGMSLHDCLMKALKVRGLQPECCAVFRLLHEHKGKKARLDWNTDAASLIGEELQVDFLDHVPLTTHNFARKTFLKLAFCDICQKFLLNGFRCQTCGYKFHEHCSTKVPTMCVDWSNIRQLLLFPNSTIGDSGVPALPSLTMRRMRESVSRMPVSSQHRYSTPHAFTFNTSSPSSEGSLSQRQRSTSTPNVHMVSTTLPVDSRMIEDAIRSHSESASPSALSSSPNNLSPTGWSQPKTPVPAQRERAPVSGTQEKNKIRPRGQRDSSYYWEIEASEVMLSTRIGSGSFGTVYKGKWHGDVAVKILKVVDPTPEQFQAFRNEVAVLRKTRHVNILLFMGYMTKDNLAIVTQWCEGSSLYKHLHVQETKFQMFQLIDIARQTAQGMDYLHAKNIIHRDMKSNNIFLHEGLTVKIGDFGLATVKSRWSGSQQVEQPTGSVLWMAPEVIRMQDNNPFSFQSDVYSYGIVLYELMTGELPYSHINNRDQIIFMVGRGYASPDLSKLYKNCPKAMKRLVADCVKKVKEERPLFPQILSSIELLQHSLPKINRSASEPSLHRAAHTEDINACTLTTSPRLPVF
FLT3, sequence (P36888 27-993): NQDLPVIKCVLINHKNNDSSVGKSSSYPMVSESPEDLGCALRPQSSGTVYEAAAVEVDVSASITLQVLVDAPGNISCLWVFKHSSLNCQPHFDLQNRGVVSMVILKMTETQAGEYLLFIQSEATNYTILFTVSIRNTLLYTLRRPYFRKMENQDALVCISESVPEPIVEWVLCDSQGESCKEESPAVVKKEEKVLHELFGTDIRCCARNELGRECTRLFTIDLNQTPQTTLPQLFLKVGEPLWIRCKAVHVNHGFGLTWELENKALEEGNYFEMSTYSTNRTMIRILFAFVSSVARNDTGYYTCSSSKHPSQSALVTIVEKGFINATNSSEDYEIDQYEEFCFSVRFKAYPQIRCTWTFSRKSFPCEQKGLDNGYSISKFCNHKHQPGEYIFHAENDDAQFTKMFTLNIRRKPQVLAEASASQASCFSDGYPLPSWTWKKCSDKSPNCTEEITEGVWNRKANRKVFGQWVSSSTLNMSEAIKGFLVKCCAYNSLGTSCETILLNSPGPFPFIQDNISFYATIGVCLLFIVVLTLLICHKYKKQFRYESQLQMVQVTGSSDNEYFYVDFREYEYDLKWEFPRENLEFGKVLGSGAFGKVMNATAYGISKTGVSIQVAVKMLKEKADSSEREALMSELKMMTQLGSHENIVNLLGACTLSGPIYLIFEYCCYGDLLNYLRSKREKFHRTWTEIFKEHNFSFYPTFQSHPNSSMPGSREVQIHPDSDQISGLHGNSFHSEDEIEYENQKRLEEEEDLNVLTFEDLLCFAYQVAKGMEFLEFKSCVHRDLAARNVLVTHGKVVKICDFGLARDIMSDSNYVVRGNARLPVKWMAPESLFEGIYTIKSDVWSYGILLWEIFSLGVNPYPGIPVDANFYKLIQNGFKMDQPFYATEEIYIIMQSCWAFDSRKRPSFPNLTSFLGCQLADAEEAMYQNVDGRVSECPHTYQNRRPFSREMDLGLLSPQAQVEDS
FYN, sequence (P06241 whole entry): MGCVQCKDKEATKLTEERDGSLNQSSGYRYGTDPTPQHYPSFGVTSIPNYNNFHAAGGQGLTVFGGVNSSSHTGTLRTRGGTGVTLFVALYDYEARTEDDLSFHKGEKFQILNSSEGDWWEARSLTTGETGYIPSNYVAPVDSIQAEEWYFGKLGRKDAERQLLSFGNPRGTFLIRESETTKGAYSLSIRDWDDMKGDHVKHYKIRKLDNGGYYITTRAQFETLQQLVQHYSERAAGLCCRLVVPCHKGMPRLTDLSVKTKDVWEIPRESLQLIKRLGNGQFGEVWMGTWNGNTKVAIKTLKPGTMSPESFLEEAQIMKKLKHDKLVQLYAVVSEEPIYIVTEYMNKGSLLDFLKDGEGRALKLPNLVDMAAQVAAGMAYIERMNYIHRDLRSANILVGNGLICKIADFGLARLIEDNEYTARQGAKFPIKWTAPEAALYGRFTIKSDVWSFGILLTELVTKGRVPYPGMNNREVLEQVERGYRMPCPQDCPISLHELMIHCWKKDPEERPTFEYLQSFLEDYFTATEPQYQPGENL
LYN, sequence (P07948 whole entry): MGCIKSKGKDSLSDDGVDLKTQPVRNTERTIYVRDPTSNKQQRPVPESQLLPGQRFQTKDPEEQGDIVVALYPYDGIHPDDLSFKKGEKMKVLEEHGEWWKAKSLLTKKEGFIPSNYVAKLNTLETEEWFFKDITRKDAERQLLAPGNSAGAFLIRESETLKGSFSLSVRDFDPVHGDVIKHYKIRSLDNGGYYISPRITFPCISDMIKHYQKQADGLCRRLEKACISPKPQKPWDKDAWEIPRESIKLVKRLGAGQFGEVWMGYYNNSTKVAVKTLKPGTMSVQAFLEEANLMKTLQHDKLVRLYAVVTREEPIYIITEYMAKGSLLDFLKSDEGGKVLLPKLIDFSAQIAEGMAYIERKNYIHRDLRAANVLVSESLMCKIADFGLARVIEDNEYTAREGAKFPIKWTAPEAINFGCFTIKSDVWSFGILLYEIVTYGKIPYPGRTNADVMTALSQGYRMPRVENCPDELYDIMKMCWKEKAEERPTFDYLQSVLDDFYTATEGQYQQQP
BLK, sequence (P51451 whole entry): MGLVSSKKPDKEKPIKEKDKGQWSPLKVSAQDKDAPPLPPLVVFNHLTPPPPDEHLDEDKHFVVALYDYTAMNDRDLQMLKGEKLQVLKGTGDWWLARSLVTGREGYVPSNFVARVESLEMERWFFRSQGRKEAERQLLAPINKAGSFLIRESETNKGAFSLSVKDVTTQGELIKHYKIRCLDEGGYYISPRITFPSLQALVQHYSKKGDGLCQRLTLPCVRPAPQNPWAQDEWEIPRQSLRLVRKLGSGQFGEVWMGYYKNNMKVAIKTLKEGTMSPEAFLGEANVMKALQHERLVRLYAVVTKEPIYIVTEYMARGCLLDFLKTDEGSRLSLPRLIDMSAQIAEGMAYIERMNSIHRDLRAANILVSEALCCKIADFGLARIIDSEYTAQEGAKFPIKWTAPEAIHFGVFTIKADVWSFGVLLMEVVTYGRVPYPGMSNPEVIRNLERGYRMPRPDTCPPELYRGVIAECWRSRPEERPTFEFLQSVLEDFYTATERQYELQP
BTK, sequence (Q06187 whole entry): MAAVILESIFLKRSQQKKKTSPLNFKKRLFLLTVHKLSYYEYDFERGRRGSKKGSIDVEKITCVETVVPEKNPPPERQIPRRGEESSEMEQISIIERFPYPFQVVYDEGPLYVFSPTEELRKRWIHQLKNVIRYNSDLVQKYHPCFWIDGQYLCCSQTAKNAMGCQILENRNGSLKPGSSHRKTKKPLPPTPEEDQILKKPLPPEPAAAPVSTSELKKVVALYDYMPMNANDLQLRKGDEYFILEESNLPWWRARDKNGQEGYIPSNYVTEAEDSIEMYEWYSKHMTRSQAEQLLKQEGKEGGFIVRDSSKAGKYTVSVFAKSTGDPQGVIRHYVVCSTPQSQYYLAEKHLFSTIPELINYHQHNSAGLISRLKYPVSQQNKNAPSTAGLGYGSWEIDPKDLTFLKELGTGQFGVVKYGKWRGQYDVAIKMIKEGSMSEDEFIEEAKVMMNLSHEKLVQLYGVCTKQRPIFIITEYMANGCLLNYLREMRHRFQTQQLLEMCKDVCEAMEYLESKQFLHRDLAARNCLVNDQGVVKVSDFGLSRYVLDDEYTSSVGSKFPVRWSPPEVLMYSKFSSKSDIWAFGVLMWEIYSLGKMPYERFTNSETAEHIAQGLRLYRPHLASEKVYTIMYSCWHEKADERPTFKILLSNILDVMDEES
MEK5, sequence (Q13163 whole entry): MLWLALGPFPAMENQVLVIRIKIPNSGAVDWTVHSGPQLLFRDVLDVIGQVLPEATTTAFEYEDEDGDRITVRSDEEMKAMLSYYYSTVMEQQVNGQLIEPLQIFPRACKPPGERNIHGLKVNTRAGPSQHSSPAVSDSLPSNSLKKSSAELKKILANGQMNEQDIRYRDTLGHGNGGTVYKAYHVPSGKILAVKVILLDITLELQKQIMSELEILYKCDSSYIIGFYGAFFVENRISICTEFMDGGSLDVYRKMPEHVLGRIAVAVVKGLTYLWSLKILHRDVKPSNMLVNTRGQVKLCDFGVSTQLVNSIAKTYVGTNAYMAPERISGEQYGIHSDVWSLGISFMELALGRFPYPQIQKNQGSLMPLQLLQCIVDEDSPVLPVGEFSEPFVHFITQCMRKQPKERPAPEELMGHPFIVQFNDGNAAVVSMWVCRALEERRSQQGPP

For `Nc1ncnc2c1c(-c1ccc(Oc3ccccc3)cc1)nn2C[C@@H]1SSC[C@@H]1O` [46 A.], the Kd (usually a measure of binding affinity in units of concentration) was 100 to 999 nM at MEK1, below 5 nM at MEK5 (setting [3]) and 100 to 999 nM at mTOR. Moreover, the IC50 (usually the point on the concentration scale where inhibition reaches its midpoint) on ARAF lay within 1000 to 10000 nM; on BLK, 5 to 99 nM; at BRK, 5 to 99 nM; at BTK it was 5 to 99 nM; on CRAP, 1000 to 10000 nM; on FGR it was 5 to 99 nM. Also, the half-inhibitory concentration (IC50) is 5 to 99 nM on FLT3; 100 to 999 nM at FLT3-ITD; 5 to 99 nM at FYN; 5 to 99 nM at FYN-Y531F; 5 to 99 nM at HCK; 5 to 99 nM at LCK. Also, the figures for the IC50 on LYN, at SRC and at YES1 [1] were 100 to 999 nM, 100 to 999 nM and below 5 nM, respectively.
As to `Nc1ncnc2c1c(-c1ccc(Oc3ccccc3)cc1)nn2C[C@H]1SSC[C@@H]1O` [43 B.], the dissociation constant (Kd) at MEK1 is 5 to 99 nM; at MEK5 (setting [3]), below 5 nM; on mTOR it was 100 to 999 nM. Also, the concentration for half-maximal inhibition (IC50) on BLK is 5 to 99 nM; on BRK it was 5 to 99 nM; at BTK, 5 to 99 nM; at FGR it was below 5 nM; at FLT3 it was 100 to 999 nM; on FLT3-ITD, 100 to 999 nM. In addition, the IC50 was below 5 nM on FYN; 100 to 999 nM on FYN-Y531F; below 5 nM at HCK; below 5 nM on LCK; 5 to 99 nM on LYN; 5 to 99 nM at SRC. Moreover, the IC50 on YES1 [1] and at YES1 [2] was below 5 nM throughout.
In the case of `Nc1ncnc2c1c(-c1ccc(Oc3ccccc3)cc1)nn2C[C@H]1SSC[C@H]1O` [46 B.], the Kd on MEK1 is 5 to 99 nM; on MEK5 (setting [3]), below 5 nM; on mTOR it was 100 to 999 nM. Further, the IC50 on ARAF was 100 to 999 nM; at BLK, below 5 nM; at BRK it was 5 to 99 nM; at BTK, 5 to 99 nM; at CRAP, 1000 to 10000 nM; on FGR, below 5 nM. Further, the IC50 was 5 to 99 nM at FLT3; 100 to 999 nM at FLT3-ITD; below 5 nM at FYN; 5 to 99 nM on FYN-Y531F; 5 to 99 nM at HCK; below 5 nM on LCK. Also, the IC50 at LYN is 5 to 99 nM; at SRC, 5 to 99 nM; on YES1 [1], below 5 nM; at YES1 [2] it was below 5 nM.
Take `Nc1ncnc2c1c(-c1ccc(Oc3ccccc3)cc1)nn2C[C@@H]1SSC[C@H]1O` [43 A.]: the Kd is below 5 nM at MEK5 (Table 9, read-out: Kd Values Against Representative MEK5 Kinase: MEK5) and 1000 to 10000 nM on mTOR. The IC50 at ARAF was 100 to 999 nM; at BLK it was below 5 nM; on BRK, 5 to 99 nM; on BTK, 5 to 99 nM; on CRAP it was 1000 to 10000 nM; on FGR, below 5 nM. The IC50 on FLT3 was 5 to 99 nM; on FLT3-ITD, 100 to 999 nM; on FYN it was below 5 nM; on FYN-Y531F it was 5 to 99 nM; at HCK, below 5 nM; on LCK, below 5 nM. The IC50 at LYN is 5 to 99 nM; at SRC, 100 to 999 nM; on YES1 [1] it was below 5 nM; on YES1 [2], below 5 nM.
